# No end group written: not given here.
# Assays:
# fecal chymotrypsin level = assay: Fecal Chymotrypsin Test after secretin infusion, 16 autistic children (Experiment 1); type: in vivo; settings: each of 16 autistic children; approximately one week after first secretin infusion, 1 U/kg IV; compared with pre-secretin levels
# Procedure: (§1) In this experiment, 16 children diagnosed as having autism were administered the following Fecal Chymotrypsin Test in accordance with an embodiment of the invention. First, approximately 2 grams of stool were collected from each child and placed in a sterile container (although it is to be understood that any quantity of stool may be collected, as 2 grams of stool is not a required amount). Each stool sample was then analyzed using, e.g., an enzymatic photospectrometry analysis as is known by those skilled in the art, to determine the level of fecal chymotrypsin in the stool. Although the enzymatic photospectrophotometry process is preferred, any suitable conventional method may be used for measuring the fecal chymotrypsin levels. The measured chymotrypsin levels of the 16 autistic children are illustrated in FIG. 13.
# After determining the chymotrypsin levels of the stools, each of these levels were compared with threshold chymotrypsin levels to determine if the child was likely to benefit from secretin administration. By way of example, with the fecal chymotrypsin tests of the stool samples being performed at 30° C., normal levels of chymotrypsin are deemed to lie above 8.4 U/gram, whereas pathologically abnormal levels are deemed to lie below 4.2 U/gram. […]
# [1] = test system: children diagnosed as having autism; assay: CARS (Childhood Autism Rating Scale) test pre- and post-secretin (Experiment 1); type: in vivo; settings: 16 autistic children
# Procedure: Upon determining that a given child was likely to benefit from secretin administration based on the results of the fecal chymotrypsin test, the child was administered a CARS (Childhood Autism Rating Scale) test prior to being scheduled for secretin infusion.
# For each of the 16 autistic children tested, a preferred secretin infusion process according to the present invention was performed involving the administering of 1 U/kg of body weight of Secretin-Ferring for a period of nine months at intervals of approximately 6 weeks. In addition, another CARS test was administered to each of the 16 autistic children 3 weeks post secretin administration to determine if their autism had changed post infusion.
# A preferred secretin infusion process includes the initial step of prepping an arm of the candidate child with an IV injection of saline. A test dose of 1 U of Secretin-Ferring is then administered to the child. Approximately one minute after infusion, the child is examined for signs of allergic reaction including rash, increased heart rate, and increase of blood pressure. […] Subsequently, each child receives a 1 U/kg of body weight infusion of Secretin-Ferring approximately every 6 weeks for 9 months. It is to be understood that any commercially available form of secretin may be used.
# [2] = test system: fecal chymotrypsin (FC) levels; assay: Weekly fecal chymotrypsin test during 6 months of secretin, 37 autistic children (Experiment 2); type: in vivo; settings: 6 months post-secretin administration; of 37 children, all abnormal pre-secretin
# Procedure: as §1
# After determining the chymotrypsin levels of the stools, each of these levels were compared with threshold chymotrypsin levels to determine if the child was likely to benefit from secretin administration. By way of example, with the fecal chymotrypsin tests of the stool samples being performed at 30° C., normal levels of chymotrypsin are deemed to lie above 8.4 U/gram, whereas pathologically abnormal levels are deemed to lie below 4.2 U/gram. In addition, chymotrypsin levels between 8.4 U/gram and 4.2 U/gram are considered equivocal, and further testing of the individual's fecal chymotrypsin levels over a period of time should be performed.
# A preferred secretin infusion process includes the initial step of prepping an arm of the candidate child with an IV injection of saline. A test dose of 1 U of Secretin-Ferring is then administered to the child. […]
# In this experiment, 37 autistic children with abnormal fecal chymotrypsin levels were administered secretin over the course of 6 months using the secretin infusion process described above. Their fecal chymotrypsin (FC) levels were measured weekly using the fecal chymotrypsin test described above.
# [3] = test system: children diagnosed with Autism; settings: secretin given as diagnostic procedure during upper gastrointestinal endoscopy; cited from earlier work
substance,measurement,setting,value
"secretin (HSDGTFTSELSRLRDSARLQRLLQGLV-NH2; ends and bridges not checked; UniProt P63298 33-59, looked up) [gastrointestinal peptide hormone]",fecal chymotrypsin level post-secretin administration,fecal chymotrypsin level,increased
same,CARS component scores (all except fear),[1]; 3 weeks post infusion,demonstrated improvement
same,CARS fear component score,[1]; 3 weeks post infusion,increased
same,CARS scores (overall),[1]; approximately 3 weeks after first secretin administration vs pre-secretin,overall decrease
same,# Autistic Children w/Abnormal FC levels,[2],1
same,# Autistic Children w/Equivocal FC levels,[2],2
same,# Autistic Children w/normal FC levels,[2],34
same,symptoms associated with Autism,[3],ameliorating the symptoms associated with Autism
